Test results taken from ChEMBL document CHEMBL1142185, “Posaconazole enhances the activity of amphotericin B against Aspergillus hyphae in vitro” (2007).
Values after ≈ are worked out from the molar mass of the structure shown.

How the values were obtained:
Assay type in all cases: functional
Aspergillus niger [1] = experiment: Antifungal activity against Aspergillus niger hyphae
Aspergillus terreus [2] = experiment: Antifungal activity against Aspergillus terreus conidia
Aspergillus terreus [3] = experiment: Antifungal activity against Aspergillus terreus hyphae
Aspergillus fumigatus [4] = experiment: Antifungal activity against Aspergillus fumigatus conidia
Aspergillus fumigatus [5] = experiment: Antifungal activity against Aspergillus fumigatus hyphae
Aspergillus flavus [6] = experiment: Antifungal activity against Aspergillus flavus conidia
Aspergillus niger [7] = experiment: Antifungal activity against Aspergillus niger conidia
Aspergillus flavus [8] = experiment: Antifungal activity against Aspergillus flavus hyphae

Row | SMILES | MIC90 (Aspergillus niger [1]) [µg/mL] | MIC90 (Aspergillus terreus [2]) [µg/mL] | MIC90 (Aspergillus terreus [3]) [µg/mL] | MIC90 (Aspergillus fumigatus [4]) [µg/mL] | MIC90 (Aspergillus fumigatus [5]) [µg/mL] | MIC90 (Aspergillus flavus [6]) [µg/mL] | MIC90 (Aspergillus niger [7]) [µg/mL] | MIC90 (Aspergillus flavus [8]) [µg/mL]
1 | C[C@@H](c1ncncc1F)[C@](O)(Cn1cncn1)c1ccc(F)cc1F [VORICONAZOLE] | 2 (≈ 5.73 µM) | 0.5 (≈ 1.43 µM) | 1 (≈ 2.86 µM) | 0.125 (≈ 0.358 µM) | 1 (≈ 2.86 µM) | 0.5 (≈ 1.43 µM) | 0.5 (≈ 1.43 µM) | 2 (≈ 5.73 µM)
2 | CC[C@@H]([C@H](C)O)n1ncn(-c2ccc(N3CCN(c4ccc(OC[C@@H]5CO[C@@](Cn6cncn6)(c6ccc(F)cc6F)C5)cc4)CC3)cc2)c1=O [POSACONAZOLE] | 1 (≈ 1.43 µM) | 0.25 (≈ 0.357 µM) | 1 (≈ 1.43 µM) | 0.125 (≈ 0.178 µM) | 0.5 (≈ 0.713 µM) | 0.125 (≈ 0.178 µM) | 0.25 (≈ 0.357 µM) | 0.5 (≈ 0.713 µM)
3 | C[C@@H]1[C@H](O)[C@@H](C)/C=C/C=C/C=C/C=C/C=C/C=C/C=C/[C@H](O[C@@H]2O[C@H](C)[C@@H](O)[C@H](N)[C@@H]2O)C[C@@H]2O[C@](O)(C[C@@H](O)C[C@@H](O)[C@H](O)CC[C@@H](O)C[C@@H](O)CC(=O)O[C@H]1C)C[C@H](O)[C@H]2C(=O)O [AMPHOTERICIN B] | 5 (≈ 5.41 µM) | 2.5 (≈ 2.71 µM) | 5 (≈ 5.41 µM) | 0.625 (≈ 0.676 µM) | 2.5 (≈ 2.71 µM) | 1.25 (≈ 1.35 µM) | 1.25 (≈ 1.35 µM) | 2.5 (≈ 2.71 µM)
